Where two headings read alike, the source gives them in different places.
Tests used:
MAPKAPK3 = MAPKAPK3 (Homo sapiens, UniProt Q16644); experiment: Kinome profiling MAPKAPK3; type: biochemical; conditions: read-out: Inhibitory activity MAPKAPK3; for inhibition at 0.1 µM: 100 nM
Description: (§1) . The kinome-wide selectivity was determined following the methods previously reported by Mohedas et al., ACS Chem Biol 2013, 8, 1291-1302 and Sanvitale et al., PLoS One 2013, 8, e62721.

PI3-K-δ = PI3-K-δ (Homo sapiens, UniProt O00329); experiment: Kinome profiling PI3-K-δ; type: biochemical; conditions: read-out: Inhibitory activity PI3-K-δ; for inhibition at 0.1 µM: 100 nM
Description: as §1

MAPK3 = MAPK3 (Homo sapiens, UniProt P27361); experiment: Kinome profiling MAPK3; type: biochemical; conditions: read-out: Inhibitory activity MAPK3; for inhibition at 0.1 µM: 100 nM
Description: as §1

SGK3 = molecular target: T1, SGK3 (Homo sapiens, UniProt Q96BR1); experiment: Kinome profiling SGK3; type: biochemical; conditions: read-out: Inhibitory activity SGK3; for inhibition at 0.1 µM: 100 nM
T1 sequence (Q96BR1 1-496): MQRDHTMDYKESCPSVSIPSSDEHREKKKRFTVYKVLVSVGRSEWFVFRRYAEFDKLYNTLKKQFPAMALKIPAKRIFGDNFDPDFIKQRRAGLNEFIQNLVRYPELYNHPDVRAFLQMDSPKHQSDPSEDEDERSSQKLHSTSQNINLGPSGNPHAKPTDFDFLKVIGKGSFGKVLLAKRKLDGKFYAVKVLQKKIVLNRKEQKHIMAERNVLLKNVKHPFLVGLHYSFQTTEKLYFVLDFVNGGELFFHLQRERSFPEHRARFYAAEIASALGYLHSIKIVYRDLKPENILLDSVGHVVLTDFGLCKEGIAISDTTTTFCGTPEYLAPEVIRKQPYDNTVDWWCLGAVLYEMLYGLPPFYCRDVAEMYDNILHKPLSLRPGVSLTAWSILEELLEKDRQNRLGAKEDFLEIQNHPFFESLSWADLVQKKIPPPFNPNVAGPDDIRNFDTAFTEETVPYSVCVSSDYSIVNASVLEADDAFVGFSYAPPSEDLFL
Description: as §1

ROCK2 = ROCK2 (Homo sapiens, UniProt O75116); experiment: Kinome profiling ROCK2; type: biochemical; conditions: read-out: Inhibitory activity ROCK2; for inhibition at 0.1 µM: 100 nM
Description: as §1

MAPKAPK2 = MAPKAPK2 (Homo sapiens, UniProt P49137); experiment: Kinome profiling MAPKAPK2; type: biochemical; conditions: read-out: Inhibitory activity MAPKAPK2; for inhibition at 0.1 µM: 100 nM
Description: as §1

P70S6KB1 = P70S6KB1 (Homo sapiens, UniProt P23443); experiment: Kinome profiling P70S6KB1; type: biochemical; conditions: read-out: Inhibitory activity P70S6KB1; for inhibition at 0.1 µM: 100 nM
Description: as §1

PYK2 = PYK2 (Homo sapiens, UniProt Q14289); experiment: Kinome profiling PYK2; type: biochemical; conditions: read-out: Inhibitory activity PYK2; for inhibition at 0.1 µM: 100 nM
Description: as §1

IGF1R = IGF1R (Homo sapiens, UniProt P08069); experiment: Kinome profiling IGF1R; type: biochemical; conditions: read-out: Inhibitory activity IGF1R; for inhibition at 0.1 µM: 100 nM
Description: as §1

MARK4 = molecular target: T2, MARK4 (Homo sapiens, UniProt Q96L34); experiment: Kinome profiling MARK4; type: biochemical; conditions: read-out: Inhibitory activity MARK4; for inhibition at 0.1 µM: 100 nM
T2 sequence (Q96L34 1-752): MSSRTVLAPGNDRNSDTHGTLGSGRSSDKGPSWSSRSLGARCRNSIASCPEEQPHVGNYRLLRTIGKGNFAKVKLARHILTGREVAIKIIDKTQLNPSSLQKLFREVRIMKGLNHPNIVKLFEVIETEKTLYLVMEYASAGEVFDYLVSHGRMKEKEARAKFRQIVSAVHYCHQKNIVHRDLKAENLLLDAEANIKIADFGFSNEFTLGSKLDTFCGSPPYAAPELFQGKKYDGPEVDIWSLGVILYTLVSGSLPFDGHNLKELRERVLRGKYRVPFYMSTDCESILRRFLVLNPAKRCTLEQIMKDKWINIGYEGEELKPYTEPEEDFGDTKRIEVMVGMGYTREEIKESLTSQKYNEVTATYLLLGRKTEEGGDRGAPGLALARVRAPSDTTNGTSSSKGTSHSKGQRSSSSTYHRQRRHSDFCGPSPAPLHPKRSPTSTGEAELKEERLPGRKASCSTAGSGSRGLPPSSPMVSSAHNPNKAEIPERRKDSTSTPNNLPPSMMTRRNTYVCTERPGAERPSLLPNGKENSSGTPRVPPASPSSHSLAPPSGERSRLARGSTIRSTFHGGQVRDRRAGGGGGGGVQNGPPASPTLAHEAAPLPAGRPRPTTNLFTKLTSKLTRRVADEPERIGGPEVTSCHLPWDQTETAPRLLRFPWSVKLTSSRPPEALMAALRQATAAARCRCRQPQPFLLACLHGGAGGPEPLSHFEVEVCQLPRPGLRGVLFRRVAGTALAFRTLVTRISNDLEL
Description: as §1

[1] = tested on: HePG2 hepatocarcinoma cells; type: cell-based; conditions: human
Description: The cells were incubated for 2 h (37° C. and 5% CO2) and allowed to settle and attach. Compounds of interest or DMSO were diluted in DMEM and added at final compound concentrations of 1 μM, 10 μM, and 100 μM. Cells were incubated for 4 hours and 24 hours after which the media was discarded. Cells were lysed by adding 30 μL of passive lysis buffer (Promega) and shaken at RT for 15 min. Cell viability was determined by quantifying the ATP present in each well by adding 10 μL of CellTiter-Glo (Promega) per well and measuring the light output Spectramax L luminometer (Molecular Devices) with an integration time of one second per well. Data was normalized to 100% viability for cells receiving only DMSO without any concurrent compound.

CDK6/cyclinD3 = CDK6/cyclinD3 (Homo sapiens, UniProt Q00534); experiment: Kinome profiling CDK6/cyclinD3; type: biochemical; conditions: read-out: Inhibitory activity CDK6/cyclinD3; for inhibition at 0.1 µM: 100 nM
Description: as §1

MSK1 = MSK1 (Homo sapiens, UniProt O75582); experiment: Kinome profiling MSK1; type: biochemical; conditions: read-out: Inhibitory activity MSK1; for inhibition at 0.1 µM: 100 nM
Description: as §1

Sequence of P70S6KB1 (P23443 whole entry): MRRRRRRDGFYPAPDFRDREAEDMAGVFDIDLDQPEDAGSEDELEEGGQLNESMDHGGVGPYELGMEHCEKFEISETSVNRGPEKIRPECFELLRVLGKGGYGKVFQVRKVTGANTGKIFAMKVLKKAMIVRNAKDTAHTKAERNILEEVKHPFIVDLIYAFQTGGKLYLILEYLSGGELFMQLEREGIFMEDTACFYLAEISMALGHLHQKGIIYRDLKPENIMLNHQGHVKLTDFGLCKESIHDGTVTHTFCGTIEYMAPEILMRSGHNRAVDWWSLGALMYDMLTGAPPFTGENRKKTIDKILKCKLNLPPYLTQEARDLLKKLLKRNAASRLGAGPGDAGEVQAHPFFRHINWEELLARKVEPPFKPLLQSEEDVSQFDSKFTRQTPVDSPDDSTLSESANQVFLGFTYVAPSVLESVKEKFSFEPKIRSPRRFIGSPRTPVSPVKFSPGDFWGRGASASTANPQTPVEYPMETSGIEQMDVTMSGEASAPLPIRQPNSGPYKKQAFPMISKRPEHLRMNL
Sequence of CDK6/cyclinD3 (Q00534 whole entry): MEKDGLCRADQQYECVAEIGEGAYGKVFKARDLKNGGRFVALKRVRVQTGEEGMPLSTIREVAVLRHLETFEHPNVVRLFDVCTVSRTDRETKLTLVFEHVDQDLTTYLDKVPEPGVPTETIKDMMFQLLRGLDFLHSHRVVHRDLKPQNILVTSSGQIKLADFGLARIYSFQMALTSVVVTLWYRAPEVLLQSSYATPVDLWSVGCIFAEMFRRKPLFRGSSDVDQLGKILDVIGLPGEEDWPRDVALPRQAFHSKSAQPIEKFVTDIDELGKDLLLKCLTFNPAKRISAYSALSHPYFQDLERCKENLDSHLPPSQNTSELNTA
Sequence of CDK6/cyclinD3 (P30281 whole entry partner): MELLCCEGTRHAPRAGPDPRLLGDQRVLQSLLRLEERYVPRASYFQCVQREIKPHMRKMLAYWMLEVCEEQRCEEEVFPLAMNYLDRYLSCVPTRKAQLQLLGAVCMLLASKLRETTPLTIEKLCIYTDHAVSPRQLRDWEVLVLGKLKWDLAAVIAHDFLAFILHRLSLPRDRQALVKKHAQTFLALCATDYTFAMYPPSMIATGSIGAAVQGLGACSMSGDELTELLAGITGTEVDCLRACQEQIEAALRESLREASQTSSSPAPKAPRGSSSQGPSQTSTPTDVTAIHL
Sequence of PI3-K-δ (O00329 whole entry): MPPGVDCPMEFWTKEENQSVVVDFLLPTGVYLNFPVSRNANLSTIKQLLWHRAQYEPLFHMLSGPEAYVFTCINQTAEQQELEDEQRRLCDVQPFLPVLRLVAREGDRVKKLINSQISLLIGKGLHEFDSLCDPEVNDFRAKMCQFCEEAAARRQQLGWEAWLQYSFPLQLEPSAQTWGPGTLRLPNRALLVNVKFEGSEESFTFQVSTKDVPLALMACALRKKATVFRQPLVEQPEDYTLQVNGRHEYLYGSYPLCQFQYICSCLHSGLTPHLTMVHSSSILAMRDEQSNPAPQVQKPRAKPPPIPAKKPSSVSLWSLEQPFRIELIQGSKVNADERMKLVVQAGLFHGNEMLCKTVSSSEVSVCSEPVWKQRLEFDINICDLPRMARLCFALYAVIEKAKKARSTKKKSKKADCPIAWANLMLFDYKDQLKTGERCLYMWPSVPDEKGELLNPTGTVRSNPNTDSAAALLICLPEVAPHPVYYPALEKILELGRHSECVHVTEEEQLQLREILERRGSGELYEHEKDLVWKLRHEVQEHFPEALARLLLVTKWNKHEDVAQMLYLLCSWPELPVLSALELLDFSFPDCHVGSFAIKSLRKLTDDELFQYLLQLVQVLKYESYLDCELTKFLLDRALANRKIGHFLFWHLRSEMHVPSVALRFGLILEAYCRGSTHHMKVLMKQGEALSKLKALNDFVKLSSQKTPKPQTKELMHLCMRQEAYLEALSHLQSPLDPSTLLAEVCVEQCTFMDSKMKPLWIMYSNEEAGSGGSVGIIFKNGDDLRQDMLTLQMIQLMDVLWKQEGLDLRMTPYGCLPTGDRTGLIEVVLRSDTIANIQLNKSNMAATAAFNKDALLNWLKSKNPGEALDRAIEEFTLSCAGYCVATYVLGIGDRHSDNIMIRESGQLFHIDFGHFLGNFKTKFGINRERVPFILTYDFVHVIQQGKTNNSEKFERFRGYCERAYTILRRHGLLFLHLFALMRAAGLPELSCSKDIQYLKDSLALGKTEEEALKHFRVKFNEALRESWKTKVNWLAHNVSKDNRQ
Sequence of PI3-K-δ (P27986 whole entry partner): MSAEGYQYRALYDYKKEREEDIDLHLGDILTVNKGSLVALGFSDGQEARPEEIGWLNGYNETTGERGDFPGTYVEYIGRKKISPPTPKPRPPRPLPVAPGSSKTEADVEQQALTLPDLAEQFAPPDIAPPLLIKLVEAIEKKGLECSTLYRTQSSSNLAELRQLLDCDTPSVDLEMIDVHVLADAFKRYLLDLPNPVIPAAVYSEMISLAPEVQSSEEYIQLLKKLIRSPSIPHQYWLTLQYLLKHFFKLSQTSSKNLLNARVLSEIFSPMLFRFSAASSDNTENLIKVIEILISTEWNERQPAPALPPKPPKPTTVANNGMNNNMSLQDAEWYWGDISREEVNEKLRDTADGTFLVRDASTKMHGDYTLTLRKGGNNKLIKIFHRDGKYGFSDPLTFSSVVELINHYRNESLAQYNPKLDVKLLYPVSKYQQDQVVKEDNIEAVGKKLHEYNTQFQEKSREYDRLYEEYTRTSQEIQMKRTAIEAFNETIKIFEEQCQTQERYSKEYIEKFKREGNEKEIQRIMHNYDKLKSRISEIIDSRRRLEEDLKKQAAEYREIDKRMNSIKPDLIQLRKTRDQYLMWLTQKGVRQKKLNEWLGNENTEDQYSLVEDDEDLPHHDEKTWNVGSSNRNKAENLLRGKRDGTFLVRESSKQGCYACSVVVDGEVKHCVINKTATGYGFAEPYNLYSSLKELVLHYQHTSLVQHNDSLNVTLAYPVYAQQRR
Sequence of MSK1 (O75582 whole entry): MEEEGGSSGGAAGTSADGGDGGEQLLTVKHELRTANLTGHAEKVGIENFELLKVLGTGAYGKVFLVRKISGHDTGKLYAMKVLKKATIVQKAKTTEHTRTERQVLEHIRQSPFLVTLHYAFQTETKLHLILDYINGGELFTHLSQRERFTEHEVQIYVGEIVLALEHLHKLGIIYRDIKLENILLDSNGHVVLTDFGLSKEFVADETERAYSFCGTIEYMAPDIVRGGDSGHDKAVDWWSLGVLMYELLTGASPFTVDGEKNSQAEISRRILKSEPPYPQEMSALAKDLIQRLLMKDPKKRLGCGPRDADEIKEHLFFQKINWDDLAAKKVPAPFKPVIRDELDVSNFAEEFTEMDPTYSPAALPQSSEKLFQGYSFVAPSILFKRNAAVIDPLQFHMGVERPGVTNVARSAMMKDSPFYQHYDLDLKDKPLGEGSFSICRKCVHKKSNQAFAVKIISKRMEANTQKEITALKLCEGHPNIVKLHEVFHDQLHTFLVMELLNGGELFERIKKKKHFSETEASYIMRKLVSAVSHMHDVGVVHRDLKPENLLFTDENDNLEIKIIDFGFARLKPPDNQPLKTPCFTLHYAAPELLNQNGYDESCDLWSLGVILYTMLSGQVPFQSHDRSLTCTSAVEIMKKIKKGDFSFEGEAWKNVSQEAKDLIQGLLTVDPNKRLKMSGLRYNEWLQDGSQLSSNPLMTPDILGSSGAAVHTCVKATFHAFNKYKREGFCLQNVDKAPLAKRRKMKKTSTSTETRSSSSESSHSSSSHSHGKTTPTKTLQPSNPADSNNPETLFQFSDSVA
Sequence of MAPK3 (P27361 whole entry): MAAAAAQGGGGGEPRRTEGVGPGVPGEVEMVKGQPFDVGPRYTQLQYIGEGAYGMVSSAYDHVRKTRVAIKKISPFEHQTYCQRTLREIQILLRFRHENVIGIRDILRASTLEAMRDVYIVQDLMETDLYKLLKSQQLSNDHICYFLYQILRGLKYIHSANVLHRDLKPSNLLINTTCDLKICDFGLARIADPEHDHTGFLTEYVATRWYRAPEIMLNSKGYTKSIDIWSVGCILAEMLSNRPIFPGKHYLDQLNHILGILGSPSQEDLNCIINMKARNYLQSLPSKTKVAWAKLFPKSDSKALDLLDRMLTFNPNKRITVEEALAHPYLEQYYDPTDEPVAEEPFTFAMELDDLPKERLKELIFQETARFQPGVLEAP
Sequence of MAPKAPK3 (Q16644 whole entry): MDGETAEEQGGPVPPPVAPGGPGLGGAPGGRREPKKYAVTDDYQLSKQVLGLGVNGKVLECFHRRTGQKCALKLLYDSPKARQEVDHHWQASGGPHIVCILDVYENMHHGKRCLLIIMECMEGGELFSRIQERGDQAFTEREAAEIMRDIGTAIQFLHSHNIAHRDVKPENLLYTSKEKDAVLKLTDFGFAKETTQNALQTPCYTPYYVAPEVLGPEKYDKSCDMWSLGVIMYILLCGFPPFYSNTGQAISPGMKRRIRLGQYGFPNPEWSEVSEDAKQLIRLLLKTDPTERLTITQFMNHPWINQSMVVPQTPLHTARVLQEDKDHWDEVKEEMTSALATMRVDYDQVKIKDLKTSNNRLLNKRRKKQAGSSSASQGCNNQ
Sequence of MAPKAPK2 (P49137 whole entry): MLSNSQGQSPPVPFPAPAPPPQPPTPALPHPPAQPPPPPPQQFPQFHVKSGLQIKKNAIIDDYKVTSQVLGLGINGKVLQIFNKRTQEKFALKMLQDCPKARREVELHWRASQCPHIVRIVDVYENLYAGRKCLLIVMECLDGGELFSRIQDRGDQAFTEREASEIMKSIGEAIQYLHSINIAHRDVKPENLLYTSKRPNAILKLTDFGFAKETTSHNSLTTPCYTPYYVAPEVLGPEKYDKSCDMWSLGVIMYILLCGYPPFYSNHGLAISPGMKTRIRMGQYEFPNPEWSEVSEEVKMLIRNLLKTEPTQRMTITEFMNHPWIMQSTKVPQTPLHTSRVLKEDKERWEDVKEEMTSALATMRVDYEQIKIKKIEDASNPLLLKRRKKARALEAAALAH

Structure (SMILES) | inhibition at 0.1 µM (MAPKAPK3) [%] | inhibition at 1 µM (MAPKAPK3) [%] | inhibition at 0.1 µM (PI3-K-δ) [%] | inhibition at 1 µM (PI3-K-δ) [%] | inhibition at 0.1 µM (MAPK3) [%] | inhibition at 1 µM (MAPK3) [%] | inhibition at 0.1 µM (SGK3) [%] | inhibition at 1 µM (SGK3) [%] | inhibition at 0.1 µM (ROCK2) [%] | inhibition at 1 µM (ROCK2) [%] | inhibition at 0.1 µM (MAPKAPK2) [%] | inhibition at 1 µM (MAPKAPK2) [%] | inhibition at 0.1 µM (P70S6KB1) [%] | inhibition at 1 µM (P70S6KB1) [%] | inhibition at 0.1 µM (PYK2) [%] | inhibition at 1 µM (PYK2) [%] | inhibition at 0.1 µM (IGF1R) [%] | inhibition at 1 µM (IGF1R) [%] | inhibition at 0.1 µM (MARK4) [%] | inhibition at 1 µM (MARK4) [%] | also measured
COc1cc(-c2cc(-c3ccc(N4CCNCC4)cc3)cnc2C)cc(OC)c1OC [Compound 10, 1-(4-(6-methyl-5-(3,4,5-trimethoxyphenyl)pyridin-3-yl)phenyl)piperazine] | -1 | 0 | 8 | 7 | 1 | 2 | 3 | 11 | 4 | 3 | 4 | 4 | 1 | 1 | 1 | 5 | 0 | 0 | 1 | 2 | Cell viability ([1]; 4 h, 1 μM): 91%; Cell viability ([1]; 4 h, 10 μM): 100%; Cell viability ([1]; 4 h, 100 μM): 88%; Cell viability ([1]; 24 h, 1 μM): 92%; Cell viability ([1]; 24 h, 10 μM): 78%; Cell viability ([1]; 24 h, 100 μM): 77%; inhibition at 0.1 µM (CDK6/cyclinD3): 3%; inhibition at 1 µM (CDK6/cyclinD3): 1%; inhibition at 0.1 µM (MSK1): 1%; inhibition at 1 µM (MSK1): 0%
COc1cc(-c2cc(-c3ccc(N4CCNCC4)cc3)cnc2N)cc(OC)c1OC [Compound 15, 5-(4-(piperazin-1-yl)phenyl)-3-(3,4,5-trimethoxyphenyl)pyridin-2-amine] | 1 | 1 | 3 | 7 | 1 | 0 | -8 | 3 | -1 | 2 | 0 | -4 | 0 | 0 | 10 | 14 | 2 | 4 | 5 | 40 | Cell viability ([1]; 4 h, 1 μM): 95%; Cell viability ([1]; 4 h, 10 μM): 103%; Cell viability ([1]; 4 h, 100 μM): 103%; Cell viability ([1]; 24 h, 1 μM): 96%; Cell viability ([1]; 24 h, 10 μM): 96%; Cell viability ([1]; 24 h, 100 μM): 23%; inhibition at 0.1 µM (CDK6/cyclinD3): 3%; inhibition at 1 µM (CDK6/cyclinD3): 6%; inhibition at 0.1 µM (MSK1): 0%; inhibition at 1 µM (MSK1): 0%
